In ChEMBL document CHEMBL1201862, “PubChem BioAssay data set” (2004):
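Results reflect a 48-hour exposure of cells in 96-well plates to compound at five concentrations. GI50 = concentration required for 50% inhibition of growth.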 Active and inactive are the calls of the source. Cut-off read from the data, not from the text of the source: active = GI50 up to about 1.1 µM and inactive = higher.

Columns and labels:
Test in all cases: inhibition of tumour cell growth, NCI panel, 48 h
SNB-19 = test system: SNB-19
IGROV-1 = test system: IGROV-1
RPMI-8226 = test system: RPMI-8226
Malme-3M = test system: Malme-3M
OVCAR-8 = test system: OVCAR-8
HCT-116 = test system: HCT-116
MDA-MB-435 = test system: MDA-MB-435
Hs-578T = test system: Hs-578T
UACC-62 = test system: UACC-62
CAKI-1 = test system: CAKI-1
SK-MEL-2 = test system: SK-MEL-2
U-251 = test system: U-251
SNB-75 = test system: SNB-75
BT-549 = test system: BT-549
MDA-MB-231 = test system: MDA-MB-231
SK-MEL-28 = test system: SK-MEL-28
UO-31 = test system: UO-31
TK-10 = test system: TK-10
UACC-257 = test system: UACC-257

Measured: GI50

O=S(=O)(O)c1ccc(-c2nnc(-c3ccccn3)nc2-c2ccc(S(=O)(=O)O)o2)o1
inactive: SNB-19 > 100 µM | IGROV-1 > 100 µM | RPMI-8226 > 100 µM | Malme-3M > 100 µM | OVCAR-8 > 100 µM | HCT-116 > 100 µM | MDA-MB-435 > 100 µM | Hs-578T > 100 µM | UACC-62 > 100 µM | CAKI-1 > 100 µM | SK-MEL-2 > 100 µM | U-251 > 100 µM | SNB-75 > 100 µM | BT-549 > 100 µM | MDA-MB-231 > 100 µM | SK-MEL-28 > 100 µM | UO-31 > 100 µM

CCOC(=O)c1nc2ccccc2nc1Nc1ccc(OC)c(OC)c1
inactive: SNB-19 > 100 µM | IGROV-1 > 100 µM | RPMI-8226 > 100 µM | TK-10 > 10 µM | Malme-3M > 100 µM | HCT-116 > 100 µM | MDA-MB-435 > 100 µM | Hs-578T 37.7 µM | UACC-62 > 100 µM | CAKI-1 > 100 µM | SK-MEL-2 > 100 µM | U-251 75.7 µM | SNB-75 21.9 µM | BT-549 > 100 µM | MDA-MB-231 > 100 µM | SK-MEL-28 > 100 µM | UO-31 > 100 µM

COc1ccc(C2CCc3nc4nc(N)nc(N)c4cc3C2)cc1 (stereo not given)
inactive: SNB-19 6.65 µM | IGROV-1 9.68 µM | UACC-257 > 100 µM | RPMI-8226 32.6 µM | TK-10 8.34 µM | Malme-3M 24.5 µM | OVCAR-8 10.2 µM | HCT-116 26 µM | MDA-MB-435 27.4 µM | Hs-578T 15.6 µM | UACC-62 31.5 µM | CAKI-1 54.1 µM | SK-MEL-2 18.9 µM | U-251 9.64 µM | SNB-75 1.67 µM | BT-549 25.5 µM | MDA-MB-231 14.8 µM | SK-MEL-28 20.8 µM

[N-]=[N+]=NC1=C(N=[N+]=[N-])c2cccc3cccc(c23)C1=O
inactive: SNB-19 > 100 µM | IGROV-1 68.2 µM | UACC-257 > 100 µM | RPMI-8226 > 100 µM | TK-10 > 100 µM | Malme-3M > 100 µM | OVCAR-8 > 100 µM | HCT-116 > 100 µM | MDA-MB-435 > 100 µM | Hs-578T > 100 µM | UACC-62 > 100 µM | CAKI-1 > 100 µM | SK-MEL-2 > 100 µM | U-251 97.7 µM | SNB-75 > 100 µM | BT-549 > 100 µM | MDA-MB-231 60.1 µM | UO-31 > 100 µM
